In US9217157B2, “Recombinant influenza viruses and uses thereof” (Icahn School of Medicine at Mount Sinai, priority 2009, dated 2015):

Legend:
[1] = test system: NS1-GFP virus; type: in vivo, influenza A virus
[2] = test system: NS1-GFP virus; set-up: species or system influenza A virus; settings: in vivo

For CCOC(=O)C1=C[C@@H](OC(CC)CC)[C@H](NC(C)=O)[C@@H](N)C1 [oseltamivir], the “GFP fluorescence intensity of lungs lower than in untreated mice” value ([1]; day 2 post-infection, 10^6 pfu, 50 mg/Kg once daily from day of infection) was 3 to 5 fold, the “spread of GFP signal in lungs, in words” value ([1]; day 4 post infection, treatment from day of infection) was “significantly restricted the spread of viral infection” and the “GFP fluorescence signal in lungs vs no treatment, in words” value ([1]; day 4 post infection, treatment started two days after infection (day+2)) was “no significant difference”. The “effect on NS1-GFP infection in different cell types, in words” value [2] was “dramatically reduced infection rate in all of the examined cell types” and the “number of infiltrating cells (inflammatory monocytes and neutrophils), in words” value [2] was “dramatically lower than in amantadine treated mice”.

NC12CC3CC(CC(C3)C1)C2 [amantadine] was tested, and the “effect on NS1-GFP infection in different cell types, in words” value [2] was “most effective in blocking infection of NK and B cells, but was less potent for other cell types”, the “prevention of infection in B and NK cells” value [2] was 3-4 fold and the “reduction in infection of CD11b+ CD11c+ cells” value [2] was 50%. The “reduction in infection of epithelial (CD45-) cells” value [2] was 50%.
